US9234000B2, “Benzylamine derivatives as inhibitors of plasma kallikrein” (KalVista Pharmaceuticals Limited, priority 2011, dated 2016)
Values after ≈ are worked out from the molar mass of the structure shown. Where two headings read alike, the source gives them in different places.

Columns and labels:
physchem = conditions: for solubility in PO4 buffer: pH 7
Experimental: Determination of the Kinetic Solubility in Phosphate Buffer
After shaking for approximately 30 seconds the reduction in light transmission of these samples, at 650 nm, was measured (Molecular Devices Spectromax UV/visible spectrophotometer). A second measurement was taken at approximately 30 seconds later.

Human plasma kallikrein = Human plasma kallikrein (Homo sapiens (Human), UniProt P03952); test: Determination of the IC50 for plasma kallikrein; format: biochemical; conditions: 37° C., read-out: IC50 (human PKal)
Chain of Human plasma kallikrein (P03952 391-638): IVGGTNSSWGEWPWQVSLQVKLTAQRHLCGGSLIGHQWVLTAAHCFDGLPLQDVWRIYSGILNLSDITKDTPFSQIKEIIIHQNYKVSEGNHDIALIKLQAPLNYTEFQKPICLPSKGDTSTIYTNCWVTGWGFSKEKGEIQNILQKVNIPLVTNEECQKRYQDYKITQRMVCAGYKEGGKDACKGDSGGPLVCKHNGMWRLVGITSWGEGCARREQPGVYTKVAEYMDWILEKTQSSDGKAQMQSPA
Chain of Human plasma kallikrein (P03952 20-390 partner): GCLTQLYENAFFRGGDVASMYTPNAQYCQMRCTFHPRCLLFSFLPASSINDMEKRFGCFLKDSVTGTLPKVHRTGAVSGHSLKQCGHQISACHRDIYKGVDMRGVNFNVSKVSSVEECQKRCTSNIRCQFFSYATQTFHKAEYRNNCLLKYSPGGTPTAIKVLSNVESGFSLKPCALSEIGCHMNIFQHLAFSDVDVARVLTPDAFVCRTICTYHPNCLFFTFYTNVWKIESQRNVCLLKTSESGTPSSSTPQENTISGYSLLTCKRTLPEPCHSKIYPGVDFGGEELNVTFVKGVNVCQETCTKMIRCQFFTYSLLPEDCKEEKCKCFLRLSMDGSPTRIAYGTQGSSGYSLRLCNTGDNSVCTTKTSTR
Method in brief: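 Residual activity (initial rate, absorbance at 410 nm) gave the IC50. Reactions at 37° C combined human plasma kallikrein, substrate H-DPro-Phe-Arg-AFC and a range of inhibitor concentrations.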

Human KLK1 = Human KLK1 (Homo sapiens (Human), UniProt P06870); test: Determination of the IC50 for KLK1; format: biochemical; conditions: Human KLK1, 37° C., substrate H-DVal-Leu-Arg-AFC
Chain of Human KLK1 (P06870 25-262): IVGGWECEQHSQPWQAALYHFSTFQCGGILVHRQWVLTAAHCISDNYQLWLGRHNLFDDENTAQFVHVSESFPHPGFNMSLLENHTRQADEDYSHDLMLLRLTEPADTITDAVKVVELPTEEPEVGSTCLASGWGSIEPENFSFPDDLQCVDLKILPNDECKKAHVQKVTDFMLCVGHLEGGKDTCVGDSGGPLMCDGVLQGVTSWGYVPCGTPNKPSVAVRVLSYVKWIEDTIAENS
Method in brief: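 IC50 values reflect residual human KLK1 activity, read as initial rate from optical absorbance change at 410 nm. Incubations ran at 37° C with H-DVal-Leu-Arg-AFC as substrate across a compound concentration series.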

[1] = fluorogenic substrate H-DPro-Phe-Arg-AFC

Compound `CCOc1ccc(C[C@@H](NS(C)(=O)=O)C(=O)N[C@@H](Cc2ccccc2)C(=O)NCc2ccc(CN)cc2)cc1` [Example 2, (R)—N—[(S)-1-(4-Aminomethyl-benzylcarbamoyl)-2-phenyl-ethyl]-3-(4-ethoxy-phenyl)-2-methanesulfonylamino-propionamide] has a solubility in PO4 buffer (physchem) of over 235 µM and an IC50 (Human plasma kallikrein; [1]) of 0.82 µM.
In the case of `CCOc1ccc(C[C@@H](N)C(=O)N[C@H](C(=O)NCc2ccc(CN)cc2)[C@@H](O)c2ccccc2)cc1` [Example 61, (R)-2-Amino-N-[(1S,2S)-1-(4-aminomethyl-benzylcarbamoyl)-2-hydroxy-2-phenyl-ethyl]-3-(4-ethoxy-phenyl)-propionamide], the solubility in PO4 buffer (physchem) is reported as over 235 µM and the IC50 (Human plasma kallikrein; [1]) is reported as 0.22 µM.
Compound `CCOc1ccc(C[C@@H](NC(=O)CC)C(=O)N(CC)[C@H](Cc2ccccc2)C(=O)NCc2ccc(CN)cc2)cc1` [Example 64, (R)-N-(4-Aminomethyl-benzyl)-2-{[(R)-3-(4-ethoxy-phenyl)-2-propionylamino-propionyl]-ethyl-amino}-3-phenyl-propionamide] has a solubility in PO4 buffer (physchem) of over 235 µM and an IC50 (Human plasma kallikrein; [1]) of 3.4 µM.
`CCOc1ccc(C[C@@H](NC(=O)c2ccc(-c3ccccc3)cc2)C(=O)N[C@@H](Cc2ccccc2)C(=O)NCc2ccc(CN)cc2)cc1` [Example 57, Biphenyl-4-carboxylic acid [(R)-1-[(S)-1-(4-aminomethyl-benzylcarbamoyl)-2-phenyl-ethylcarbamoyl]-2-(4-ethoxy-phenyl)-ethyl]-amide] gave a solubility (physchem; pH 7, aqueous buffer, kinetic from dmso stock) of 36 µM (≈ 23.6 µg/mL) and an IC50 (Human plasma kallikrein; [1]) of 10 µM.
Work on `CCOc1ccc(C[C@@H](NC(=O)CC)C(=O)N[C@H](C(=O)NCc2ccc(CN)cc2)[C@@H](O)c2ccccc2)cc1` [Example 63, (2S,3S)-N-(4-Aminomethyl-benzyl)-2-[(R)-3-(4-ethoxy-phenyl)-2-propionylamino-propionylamino]-3-hydroxy-3-phenyl-propionamide] yielded a solubility in PO4 buffer (physchem) of over 235 µM and an IC50 (Human plasma kallikrein; [1]) of 0.052 µM.
`CCOc1ccc(C[C@@H](NC(=O)CC)C(=O)N[C@@H](Cc2ccccc2)C(=O)NCc2ccc(CN)cc2Cl)cc1` [Example 12, (S)-N-(4-Aminomethyl-2-chloro-benzyl)-2-[(R)-3-(4-ethoxy-phenyl)-2-propionylamino-propionylamino]-3-phenyl-propionamide] showed a solubility in PO4 buffer (physchem) of over 235 µM and an IC50 (Human plasma kallikrein; [1]) of 0.29 µM.
Compound `CCOc1ccc(C[C@@H](NC(=O)c2ccccc2)C(=O)N[C@@H](Cc2ccncc2)C(=O)NCc2ccc(CN)cc2)cc1` [Example 147, N-[(R)-1-[(S)-1-(4-Aminomethyl-benzylcarbamoyl)-2-pyridin-4-yl-ethylcarbamoyl]-2-(4-ethoxy-phenyl)-ethyl]-benzamide] has an IC50 (Human plasma kallikrein; substrate H-DPro-Phe-Arg-AFC) of 0.284 µM and an IC50 (Human KLK1; Table 13) of over 10 µM.
Work on `CC(C)C[C@@H](NCC(=O)O)C(=O)N[C@@H](Cc1ccccc1)C(=O)NCc1ccc(CN)cc1` [Example 28, {(R)-1-[(S)-1-(4-Aminomethyl-benzylcarbamoyl)-2-phenyl-ethylcarbamoyl]-3-methyl-butylamino}-acetic acid] yielded an IC50 (Human plasma kallikrein; [1]) of 8.9 µM and an IC50 (Human KLK1; Table 12) of over 10 µM.
`CCOc1ccc(C[C@@H](NC(=O)c2ccccc2)C(=O)N[C@@H](Cc2ccccc2F)C(=O)NCc2ccc(CN)cc2)cc1` [Example 180, N-[(R)-1-[(S)-1-(4-Aminomethyl-benzylcarbamoyl)-2-(2-fluoro-phenyl)-ethylcarbamoyl]-2-(4-ethoxy-phenyl)-ethyl]-benzamide] gave an IC50 (Human plasma kallikrein; substrate H-DPro-Phe-Arg-AFC) of 0.073 µM and an IC50 (Human KLK1; Table 13) of over 10 µM.
Compound `CCOc1ccc(C[C@@H](NC(=O)c2ccccc2Cl)C(=O)N[C@@H](Cc2ccccc2)C(=O)NCc2ccc(CN)cc2)cc1` [Example 89, N-[(R)-1-[(S)-1-(4-Aminomethyl-benzylcarbamoyl)-2-phenyl-ethylcarbamoyl]-2-(4-ethoxy-phenyl)-ethyl]-2-chloro-benzamide] has an IC50 (Human plasma kallikrein; substrate H-DPro-Phe-Arg-AFC) of 0.099 µM and an IC50 (Human KLK1; Table 13) of 3.7 µM.
For `CCCCCC(=O)N[C@H](Cc1ccc(OCC)cc1)C(=O)N[C@@H](Cc1ccccc1)C(=O)NCc1ccc(CN)cc1` [Example 76, Hexanoic acid [(R)-1-[(S)-1-(4-aminomethyl-benzylcarbamoyl)-2-phenyl-ethylcarbamoyl]-2-(4-ethoxy-phenyl)-ethyl]-amide], the IC50 (Human plasma kallikrein; substrate H-DPro-Phe-Arg-AFC) was 0.452 µM and the IC50 (Human KLK1; Table 13) was 3.6 µM.
Compound `CCOc1ccc(C[C@@H](NC(=O)CC(F)(F)F)C(=O)N[C@@H](Cc2ccc(Cl)c(Cl)c2)C(=O)NCc2ccc(CN)cc2)cc1` [Example 172, N-[(R)-1-[(S)-1-(4-Aminomethyl-benzylcarbamoyl)-2-(3,4-dichloro-phenyl)-ethylcarbamoyl]-2-(4-ethoxy-phenyl)-ethyl]-3,3,3-trifluoro-propionamide] has an IC50 (Human plasma kallikrein; substrate H-DPro-Phe-Arg-AFC) of 0.881 µM and an IC50 (Human KLK1; Table 13) of over 10 µM.
In the case of `CCOc1ccc(C[C@@H](NC(=O)c2cc(C)nc(Cl)c2)C(=O)N[C@@H](Cc2ccccc2)C(=O)NCc2ccc(CN)cc2)cc1` [Example 110, N-[(R)-1-[(S)-1-(4-Aminomethyl-benzylcarbamoyl)-2-phenyl-ethylcarbamoyl]-2-(4-ethoxy-phenyl)-ethyl]-2-chloro-6-methyl-isonicotinamide], the IC50 (Human plasma kallikrein; substrate H-DPro-Phe-Arg-AFC) is reported as 0.598 µM and the IC50 (Human KLK1; Table 13) is reported as over 10 µM.
For `CCOc1ccc(C[C@@H](NS(=O)(=O)Cc2ccccc2)C(=O)N[C@@H](Cc2ccccc2)C(=O)NCc2ccc(CN)cc2)cc1` [Example 100, (R)-N-[(S)-1-(4-Aminomethyl-benzylcarbamoyl)-2-phenyl-ethyl]-3-(4-ethoxy-phenyl)-2-phenylmethanesulfonylamino-propionamide], the IC50 (Human plasma kallikrein; substrate H-DPro-Phe-Arg-AFC) was 0.474 µM and the IC50 (Human KLK1; Table 13) was 2.9 µM.
Compound `CCOc1ccc(C[C@@H](NC(=O)c2cnc(C)s2)C(=O)N[C@@H](Cc2ccccc2)C(=O)NCc2ccc(CN)cc2)cc1` [Example 112, 2-Methyl-thiazole-5-carboxylic acid [(R)-1-[(S)-1-(4-aminomethyl-benzylcarbamoyl)-2-phenyl-ethylcarbamoyl]-2-(4-ethoxy-phenyl)-ethyl]-amide] has an IC50 (Human plasma kallikrein; substrate H-DPro-Phe-Arg-AFC) of 0.298 µM and an IC50 (Human KLK1; Table 13) of over 10 µM.
Work on `CCC(=O)N[C@H](Cc1ccc(C(F)(F)F)cc1)C(=O)N[C@@H](Cc1ccc(Cl)c(Cl)c1)C(=O)NCc1ccc(CN)cc1` [Example 19] yielded an IC50 (Human plasma kallikrein; [1]) of 10 µM and an IC50 (Human KLK1; Table 12) of over 10 µM.
For `CCOc1ccc(C[C@@H](NC(=O)c2cccc(OC)n2)C(=O)N[C@@H](Cc2ccccc2)C(=O)NCc2ccc(CN)cc2)cc1` [Example 120, 6-Methoxy-pyridine-2-carboxylic acid [(R)-1-[(S)-1-(4-aminomethyl-benzylcarbamoyl)-2-phenyl-ethylcarbamoyl]-2-(4-ethoxy-phenyl)-ethyl]-amide], the IC50 (Human plasma kallikrein; substrate H-DPro-Phe-Arg-AFC) was 0.54 µM and the IC50 (Human KLK1; Table 13) was over 10 µM.
With `NCc1ccc(CNC(=O)[C@H](Cc2ccccc2)NC(=O)[C@@H](Cc2ccc(OCc3ccc(Cl)cc3)cc2)NC(=O)c2ccccc2)cc1` [Example 128, N-{(R)-1-[(S)-1-(4-Aminomethyl-benzylcarbamoyl)-2-phenyl-ethylcarbamoyl]-2-[4-(4-chloro-benzyloxy)-phenyl]-ethyl}-benzamide] the IC50 (Human plasma kallikrein; substrate H-DPro-Phe-Arg-AFC) was 2.01 µM and the IC50 (Human KLK1; Table 13) was over 10 µM.
Compound `C[C@@H](NC(=O)c1ccccc1)C(=O)N[C@@H](Cc1ccccc1)C(=O)NCc1ccc(CN)cc1` [Example 22, N-{(R)-1-[(S)-1-(4-Aminomethyl-benzylcarbamoyl)-2-phenyl-ethylcarbamoyl]-ethyl}-benzamide] has an IC50 (Human plasma kallikrein; [1]) of 10 µM and an IC50 (Human KLK1; Table 12) of 9.6 µM.
`CCOc1ccc(C[C@@H](NC(=O)c2ccncc2)C(=O)N[C@@H](Cc2ccc(F)c(F)c2)C(=O)NCc2ccc(CN)cc2)cc1` [Example 161, N-[(R)-1-[(S)-1-(4-Aminomethyl-benzylcarbamoyl)-2-(3,4-difluoro-phenyl)-ethylcarbamoyl]-2-(4-ethoxy-phenyl)-ethyl]-isonicotinamide] gave an IC50 (Human plasma kallikrein; substrate H-DPro-Phe-Arg-AFC) of 0.049 µM and an IC50 (Human KLK1; Table 13) of 6.9 µM.
With `NCc1ccc(CNC(=O)[C@H](Cc2ccccc2)NC(=O)[C@H](N)CC2CCCCC2)cc1` [Example 8, (R)-2-Amino-N-[(S)-1-(4-aminomethyl-benzylcarbamoyl)-2-phenyl-ethyl]-3-cyclohexyl-propionamide] the solubility in PO4 buffer (physchem) was over 235 µM.
In the case of `NCc1ccc(CNC(=O)[C@H](Cc2ccccc2)NC(=O)[C@@H](Cc2ccc(O)cc2)NC(=O)c2ccccc2)cc1` [Example 129, N-[(R)-1-[(S)-1-(4-Aminomethyl-benzylcarbamoyl)-2-phenyl-ethylcarbamoyl]-2-(4-hydroxy-phenyl)-ethyl]-benzamide], the IC50 (Human plasma kallikrein; substrate H-DPro-Phe-Arg-AFC) is reported as 10 µM and the IC50 (Human KLK1; Table 13) is reported as over 10 µM.
For `CCOc1ccc(C[C@@H](NC(=O)CC)C(=O)N[C@@H](Cc2ccccc2)C(=O)NCc2ccc(CN)c(F)c2)cc1` [Example 7, (S)-N-(4-Aminomethyl-3-fluoro-benzyl)-2-[(R)-3-(4-ethoxy-phenyl)-2-propionylamino-propionylamino]-3-phenyl-propionamide], the IC50 (Human plasma kallikrein; [1]) was 0.074 µM and the IC50 (Human KLK1; Table 12) was over 1 µM.
Work on `CCOc1ccc(C[C@@H](NC(=O)c2ccccc2)C(=O)N[C@@H](Cc2cccc(F)c2)C(=O)NCc2ccc(CN)cc2)cc1` [Example 149, N-[(R)-1-[(S)-1-(4-Aminomethyl-benzylcarbamoyl)-2-(3-fluoro-phenyl)-ethylcarbamoyl]-2-(4-ethoxy-phenyl)-ethyl]-benzamide] yielded an IC50 (Human plasma kallikrein; substrate H-DPro-Phe-Arg-AFC) of 0.091 µM and an IC50 (Human KLK1; Table 13) of over 10 µM.
Compound `CCOc1ccc(C[C@@H](NC(=O)c2ccccn2)C(=O)N[C@@H](Cc2ccccc2)C(=O)NCc2ccc(CN)c(F)c2)cc1` [Example 168, Pyridine-2-carboxylic acid [(R)-1-[(S)-1-(4-aminomethyl-3-fluoro-benzylcarbamoyl)-2-phenyl-ethylcarbamoyl]-2-(4-ethoxy-phenyl)-ethyl]-amide] has an IC50 (Human plasma kallikrein; substrate H-DPro-Phe-Arg-AFC) of 0.076 µM and an IC50 (Human KLK1; Table 13) of over 10 µM.
